Activity calls are given as the source filed them. No rule for the calls is given here.
Target: Ubiquitin carboxyl-terminal hydrolase 8 (Homo sapiens) (UniProt P40818)
Assay: Ubiquitin-specific protease 8 inhibitors, concentration-effect, biochemical, validation of initial actives (AID 1645862);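 also: potency reflects inhibition of USP8 cleavage of a ubiquitin rhodamine substrate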
Conditions: recombinant USP8 deubiquitinase activity assay

Chain of Ubiquitin carboxyl-terminal hydrolase 8 (Homo sapiens) (P40818 whole entry, looked up): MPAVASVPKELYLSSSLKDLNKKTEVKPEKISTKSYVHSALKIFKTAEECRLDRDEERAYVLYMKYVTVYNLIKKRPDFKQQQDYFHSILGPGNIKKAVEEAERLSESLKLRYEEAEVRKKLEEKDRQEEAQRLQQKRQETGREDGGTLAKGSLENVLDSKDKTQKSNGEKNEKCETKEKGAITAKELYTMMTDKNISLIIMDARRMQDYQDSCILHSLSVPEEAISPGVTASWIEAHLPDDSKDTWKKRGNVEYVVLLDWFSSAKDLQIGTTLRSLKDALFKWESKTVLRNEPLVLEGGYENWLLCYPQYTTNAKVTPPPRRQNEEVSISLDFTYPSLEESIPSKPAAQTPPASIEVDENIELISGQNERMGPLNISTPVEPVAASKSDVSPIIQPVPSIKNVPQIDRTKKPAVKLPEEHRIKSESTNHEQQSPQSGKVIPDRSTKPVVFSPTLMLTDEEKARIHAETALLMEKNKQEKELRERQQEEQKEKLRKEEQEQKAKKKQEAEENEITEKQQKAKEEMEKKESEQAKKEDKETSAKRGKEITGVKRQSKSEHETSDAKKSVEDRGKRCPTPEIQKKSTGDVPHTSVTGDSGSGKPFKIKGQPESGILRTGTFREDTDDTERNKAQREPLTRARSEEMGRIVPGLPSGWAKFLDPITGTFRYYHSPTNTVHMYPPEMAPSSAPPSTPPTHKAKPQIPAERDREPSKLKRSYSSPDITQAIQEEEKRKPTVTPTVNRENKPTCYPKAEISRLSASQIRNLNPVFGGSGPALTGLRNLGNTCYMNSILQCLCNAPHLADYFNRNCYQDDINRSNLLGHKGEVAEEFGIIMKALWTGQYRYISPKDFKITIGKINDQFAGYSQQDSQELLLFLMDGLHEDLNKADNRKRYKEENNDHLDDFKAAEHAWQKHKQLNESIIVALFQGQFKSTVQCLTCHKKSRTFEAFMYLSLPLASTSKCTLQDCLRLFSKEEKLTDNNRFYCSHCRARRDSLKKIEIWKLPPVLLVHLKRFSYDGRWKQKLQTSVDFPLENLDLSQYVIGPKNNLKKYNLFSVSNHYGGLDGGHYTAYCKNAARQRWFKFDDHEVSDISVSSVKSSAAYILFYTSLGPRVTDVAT

| Compound | IC50 |
| --- | --- |
| C[C@@H]1CO[C@@H]2C3=C(C(=O)C=CC3=O)[C@H]3OC(=O)[C@@H]4CCC5[C@@H]1CCC52C34 (some centres undefined) | 25 µM |
| COc1ccc(/C=C/C(=O)Nc2ccc3nc(N4CCN(c5ncccn5)CC4)cc(C)c3c2)cc1 | > 40 µM (inactive) |
| O=C1Cc2ccccc2C(=O)N1c1ccc2c(c1)OCO2 | 38.3 µM |
| CC(=O)c1cccc(NC(=O)COC(=O)c2sc3cc(F)ccc3c2Cl)c1 | > 40 µM (inactive) |
| O=C(c1cnccn1)N1CC[C@@H]2CNS(=O)(=O)[C@@H]2CC1 | > 40 µM (inactive) |
| N=C1/C(=C/c2cn(Cc3ccccc3F)c3ccccc23)C(=O)N=C2SC(C(F)(F)F)=NN12 | > 40 µM (inactive) |
| Cc1cc(Cl)ccc1NC(=O)c1cc(-c2cccnc2)n[nH]1 | > 40 µM (inactive) |
| Cc1noc(-c2ccnc(-n3cnc(C(=O)NCC4CC4)c3)c2)n1 | > 40 µM (inactive) |
| O=C1c2c(O)cccc2C2(Oc3cccc4cccc(c34)O2)C2OC12 (centres undefined) | 7.76 µM |
| Cc1cc(Nc2ccc(C(=O)NCc3ccco3)cc2)n2nc(-c3cccnc3)nc2n1 | > 40 µM (inactive) |
| Cc1ccc2cc(-c3noc(CCC(=O)NC4CCCC4)n3)c(=O)[nH]c2c1 | > 40 µM (inactive) |
| O=C(CN1C(=O)c2cccc3cccc1c23)NCCSCc1ccc(Cl)c(Cl)c1 | > 40 µM (inactive) |
| O=c1c2cc(Br)ccc2[nH]c(=S)n1Cc1cccnc1 | > 40 µM (inactive) |
| O=C1Cc2ccccc2C(=O)N1Cc1cccc(Cl)c1 | 4.12 µM |
| CC(C)(C)C(=O)Nc1ccc(C(=O)Nc2cccc(-c3nnc(-c4ccccc4)o3)c2)cc1 | > 40 µM (inactive) |
| Cc1ccc(NC(=O)CSc2nnc(-c3n[nH]c4c3CCC4)n2N)cc1C | > 40 µM (inactive) |
| NS(=O)(=O)c1cccc(NS(=O)(=O)c2ccc(/C=C/C(=O)OCC(=O)c3ccc(Br)cc3)cc2)c1 | > 40 µM (inactive) |
| Fc1cccc(Nc2nc(-c3ccccn3)nc3ccccc23)c1 | > 40 µM (inactive) |
| Cc1c(C(=O)OCC(=O)Nc2ccc3c(c2)OCO3)oc2ccc(Br)cc12 | > 40 µM (inactive) |
| COc1cccc(C(=O)Cn2c(=O)n(CCCC(=O)NCc3ccco3)c(=O)c3ccc(Cl)cc32)c1 | > 40 µM (inactive) |
| c1cncc(-c2cnc3sc(NCc4ccc5c(c4)OCO5)nn23)c1 | > 40 µM (inactive) |
| COc1ccc(Nc2nc3c(S(=O)(=O)c4ccc(C)cc4)nnn3c3ccsc23)c(OC)c1 | > 40 µM (inactive) |
| CC(C)(C)c1ccc(C2CC(=O)C3=C(C2)Nc2ccccc2N(C(=O)CCC(=O)O)C3c2cccc([N+](=O)[O-])c2)cc1 (centres undefined) | > 40 µM (inactive) |

| Compound | IC50 |
| --- | --- |
| COc1ccc(CCNC(=O)Cn2c(=O)c3sccc3n(Cc3cccc([N+](=O)[O-])c3)c2=O)cc1OC | > 40 µM (inactive) |
| Cn1c2ccccc2c(=O)c2c(=O)n(Cc3ccco3)c(-c3ccccc3F)nc21 | 29.4 µM |
| O=C(Nc1ccc(F)cc1F)c1cc(-c2ccccn2)n[nH]1 | > 40 µM (inactive) |
| CC(c1ccccc1)N1CC(O)=C(c2nc3ccccc3s2)C1=N (centres undefined) | > 40 µM (inactive) |
| O=C(NCc1ccccc1Cl)C1CCN(c2ccc(-c3ccccc3)nn2)CC1 | > 40 µM (inactive) |
| CC[C@H](C)[C@H](NC(=O)[C@H]([C@@H](C)CC)N(C)C(C)=O)C(=O)N[C@H](C(=O)N[C@@H](CC(C)C)C(=O)C1(C)CO1)[C@@H](C)O (some centres undefined) | > 40 µM (inactive) |
| COc1cc2c(=O)n(Cc3ccccc3)c(=O)n(CC(=O)N3CCCc4ccccc43)c2cc1OC | > 40 µM (inactive) |
| CCOc1ccc(NC(=O)Cn2c(=O)n(CCC(=O)NCc3ccco3)c(=O)c3ccccc32)cc1 | > 40 µM (inactive) |
| CC(C)Cc1nc2sc3c(SCC(=O)N4CCC(C)CC4)ncnc3c2c2c1COC(C)(C)C2 | > 40 µM (inactive) |
| NS(=O)(=O)c1cccc(NC(=O)/C=C/c2cn(-c3ccccc3)nc2-c2cccc([N+](=O)[O-])c2)c1 | > 40 µM (inactive) |
| Cc1ccc2[nH]cc(S(=O)(=O)c3cc(F)cc(F)c3)c(=O)c2c1 | > 40 µM (inactive) |
| Cc1ccc(NC(=O)Nc2ccc(C)n(CC(=O)Nc3cc(C)ccc3C)c2=O)cc1 | > 40 µM (inactive) |
| Cc1ccc(NC(=O)Nc2ccc(C)n(CC(=O)Nc3cccc(C)c3)c2=O)cc1 | > 40 µM (inactive) |
| COCCCNC(=O)c1ccc(Cn2c(=O)c3ccccc3n(CC(=O)Nc3ccc(OC)cc3)c2=O)cc1 | > 40 µM (inactive) |
| CN1c2ccccc2C(=O)NC12CCN(C(=O)NCc1ccccc1)CC2 | > 40 µM (inactive) |
| O=C(NC1CCCCCC1)c1cccc(S(=O)(=O)Nc2cc(C(F)(F)F)ccc2Cl)c1 | > 40 µM (inactive) |
| COc1ccc(C)cc1NC(=O)CN1C(=O)C2CCCC2=Nc2ccccc21 (centres undefined) | > 40 µM (inactive) |
| Cc1cccc(OCC2=NN3C(=N)/C(=C\c4cc(C)n(-c5cccc(F)c5)c4C)C(=O)N=C3S2)c1 | > 40 µM (inactive) |
| CN1CCC(N2CCN(C(=O)C3CCCN(c4cnc5nccnc5c4)C3)CC2)CC1 (centres undefined) | > 40 µM (inactive) |
| Cc1ccc(CNC(=O)c2cccc(N3C(=O)N4CCc5c([nH]c6ccccc56)[C@@]4(C)C3=O)c2)cc1 | > 40 µM (inactive) |
| O=C(Nc1c2c(nn1-c1ccc([N+](=O)[O-])cc1)CSC2)c1c(F)cccc1F | > 40 µM (inactive) |
| CCc1ccc(S(=O)(=O)c2cn(CC(=O)Nc3ccccc3)c3ccccc3c2=O)cc1 | > 40 µM (inactive) |
| COc1ccc(N2CC(c3nnc(NC(=O)CCc4ccccc4)s3)CC2=O)cc1 (centres undefined) | > 40 µM (inactive) |

| Compound | IC50 |
| --- | --- |
| Cc1cccc(C)c1NC(=O)Cn1c(=O)n(CCCCC(=O)NCc2ccc3c(c2)OCO3)c(=O)c2ccccc21 | > 40 µM (inactive) |
| O=C(Cn1ccc2ccn(Cc3ccccc3)c2c1=O)Nc1ccccc1Cl | > 40 µM (inactive) |
| CCn1cc2c(n1)c(=O)n(Cc1ccccc1)c(=O)n2CC(=O)NCc1ccc(C)cc1 | > 40 µM (inactive) |
| Cc1cccc(C(=O)OCC(=O)Nc2ccc3[nH]c(=O)[nH]c3c2)c1 | > 40 µM (inactive) |
| Cc1cc(C)c2nc3c(cc2c1)CN(Cc1ccco1)C(=O)O3 | > 40 µM (inactive) |
| Cc1ccc(Nc2nc(O)c(CC(=O)Nc3ccccc3C)s2)cc1C | > 40 µM (inactive) |
| COc1cccc(CNC(=O)c2nnn(CC(=O)Nc3cc(C)ccc3C)c2N)c1 | > 40 µM (inactive) |
| O=C(NCCc1cccnc1)c1ccn(-c2ccc3ccccn23)n1 | > 40 µM (inactive) |
| CC(=O)N1CCc2cc(S(=O)(=O)NC(Cc3ccccc3)C(=O)Nc3cccc(Cl)c3C)ccc21 (centres undefined) | > 40 µM (inactive) |
| O=C(c1ccc2occc2c1)N1CCC(S(=O)(=O)c2ccc(-c3ccco3)cc2)CC1 | > 40 µM (inactive) |
| Fc1cccc(Nc2ncnc3c2oc2ccccc23)c1 | > 40 µM (inactive) |
| CSc1cccc(NC(=O)COc2cccc3ccccc23)c1 | > 40 µM (inactive) |
| CCOc1ccc(NS(=O)(=O)c2ccc(NC(=O)Nc3ccccc3)cc2)cc1 | > 40 µM (inactive) |
| Cc1nnc2ccc(-c3ccc(NC(=O)c4ccc(Br)o4)cc3)nn12 | > 40 µM (inactive) |
| CCCCCC(=O)C(CCCC)c1oc(=O)c(CCCC)c(O)c1CCCC (centres undefined) | > 40 µM (inactive) |
| Cc1cc(NC(=O)CSc2ncc(-c3cccc([N+](=O)[O-])c3)n2-c2cccc(Cl)c2)no1 | > 40 µM (inactive) |
| CNc1ccc(-c2noc([C@@H]3CCCN3Cc3cccc(C#N)c3)n2)cn1 | > 40 µM (inactive) |
| Nc1ccc(C(=O)OCC(=O)NC2CCCc3ccccc32)cc1[N+](=O)[O-] (centres undefined) | > 40 µM (inactive) |
| CN1CCc2c(C#N)c(N3CCOCC3)nc(NCC3CCCO3)c2C1 (centres undefined) | > 40 µM (inactive) |
| CCOc1ccc(C2/C(=C(\O)c3ccccc3)C(=O)C(=O)N2c2nc3ccc(F)cc3s2)cc1 (centres undefined) | > 40 µM (inactive) |
| Cc1ccc(NC(=O)Cc2sc(Nc3ccc(C)cc3)nc2O)cc1 | > 40 µM (inactive) |
| CCc1ccc(NC(=O)Cn2c(=O)n(Cc3ccccc3)c(=O)c3nn(CC)cc32)cc1 | > 40 µM (inactive) |
| Cc1ccc(CS(=O)(=O)c2cn(CC(=O)NCCc3ccccc3)c3ccccc23)cc1 | > 40 µM (inactive) |

| Compound | IC50 |
| --- | --- |
| Cc1cc(C(=O)Nc2cc([N+](=O)[O-])cc3oc(-c4ccccc4)cc23)on1 | > 40 µM (inactive) |
| O=C(Cn1c(=O)n(Cc2ccc3c(c2)OCO3)c(=O)c2cccnc21)Nc1ccc(F)cc1 | > 40 µM (inactive) |
| CCCn1cc(-c2nc(-c3ccccn3)no2)c(=O)c2ccccc21 | > 40 µM (inactive) |
| Cc1ccc(NC(=O)Nc2ccc(C)n(CC(=O)Nc3ccc(C)cc3C)c2=O)cc1 | 26 µM |
| CC(=O)c1ccc(NC(=O)CCc2c(C)c3c(C)nn(-c4ccccc4)c3n(C)c2=O)cc1 | > 40 µM (inactive) |
| Cc1ccc(C(=O)c2cn(CC(=O)Nc3ccccc3)c3ccccc3c2=O)cc1 | > 40 µM (inactive) |
| O=C1CSC(c2ccc(F)cc2)c2c(n(C3CCCCCC3)[nH]c2=O)N1 (centres undefined) | 31.9 µM |
| COc1ccc(NC(=O)Cn2c(=O)n(Cc3ccco3)c(=O)c3ccc(C(=O)NC4CCCC4)cc32)cc1 | > 40 µM (inactive) |
| COc1cc(OC)c2c(c1)C(=O)C1=C(COC(C)(O)C1)C2=O (centres undefined) | > 40 µM (inactive) |
| N#Cc1ccc(NC(=O)Nc2cccn(Cc3ccccc3Br)c2=O)cc1 | > 40 µM (inactive) |
| COc1cc(OC)cc(-c2nc(-c3cn(-c4cccc(F)c4)nn3)no2)c1 | 33 µM |
| CCn1c(SCC(=O)Nc2ccc(C)c(Cl)c2)nnc1-c1ccc2c(c1)OCCO2 | > 40 µM (inactive) |
| O=C(OC1CSc2nc3ccccc3n2C1)c1ccc([N+](=O)[O-])o1 (centres undefined) | 21.4 µM |
| CC1(C)Cc2c(c(-c3ccco3)nc3sc4c(SCCCc5ccccc5)ncnc4c23)CO1 | 24 µM |
| COc1ccc(OC)c(NC(=O)c2sc(-c3ccccc3)nc2C)c1 | > 40 µM (inactive) |
| Cc1cc(C(=O)CSc2nc3ccccc3[nH]2)c(C)n1Cc1ccco1 | > 40 µM (inactive) |
| COC(=O)c1ccc(N2CCN(C(C)=O)CC2)c(NC(=O)COc2ccc([N+](=O)[O-])cc2)c1 | > 40 µM (inactive) |
| Cc1c(Cl)cccc1NC(=O)Cn1cc(C(=O)C2CC2)c2ccccc21 | > 40 µM (inactive) |
| O=C(COc1ccc(N2CC(C(=O)NCc3ccccc3)CC2=O)cc1)Nc1ccccc1Cl (centres undefined) | > 40 µM (inactive) |
| O=C(c1cc2occc2c(Nc2ccc(F)cc2)n1)N1CCN(c2ccccc2)CC1 | > 40 µM (inactive) |

Source: PubChem BioAssay AID1645862 (Buhrlage Lab, Dana-Farber Cancer Institute and Novartis …, 2021)
